pIC50: −log10 of the molar value.
Tests used:
[1] = target: IRAK4 protein in THP-1 cells (Homo sapiens (Human), UniProt Q9NWZ3); assay: PROTAC-induced IRAK4 protein degradation in THP-1 cells (Western Blot); type: cell-based; conditions: for DC50: concentration that degraded 50% of IRAK4, Western blotting, 24 hours after administration; for IRAK4 degradation rate 24 hours after administration of the compounds with a concentration of 1 μM: Western blotting
Protocol: 2.1 Based on the experimental method of Western Blot, specific antibodies were used to stain the THP-1 cell samples treated by gel electrophoresis, and the degrading activity of the compounds on the IRAK4 protein in THP-1 cells was determined by analyzing the position and depth of staining. The concentrations of compound for the detection included 0 μM, 0.3 μM, 1 μM and 3 μM, and the cells were treated by the compound for 8 hours, 16 hours, 24 hours, and 48 hours. Glyceraldehyde-3-phosphate dehydrogenase (GAPDH) is an internal reference protein in this experiment.
Electrophoresis buffer: 50 mL MOPS SDS Running Buffer (20×) and 50 mL 20×TBS Tween-20 buffer were diluted with deionized water to 1 L as the electrophoresis buffer;
5% skim milk (w/v): 2.5 g skim milk was diluted with 50 mL 1×TBS Tween-20 buffer to prepare 5% skim milk;
5% BSA (w/v): 2.5 g BSA was diluted with 50 mL 1×TBS Tween-20 buffer to prepare 5% BSA;
Anti-IRAK4 antibody was diluted with 5% BSA at 1:1000 into a primary antibody working solution;
Goat Anti-Rabbit IgG H&L (HRP) was diluted with 5% BSA at 1:2000 into a second antibody working solution; and
Goat Anti-Mouse IgG H&L (HRP) was diluted with 5% BSA at 1:2000 into a second antibody working solution.
THP-1 cells were plated in a 6-well plate at a density of 1.5×10^6 cells per ml and incubated for 2 hours in a cell culture incubator under 37° C. and 5% CO2. The compound was diluted with DMSO to 0.6 mM, 0.2 mM and 0.06 mM respectively. 10 μL of compound solution was added to the corresponding wells, and continued to incubate in the incubator for 16 hours, 24 hours and 48 hours respectively. The compound-treated THP-1 cells in the well were collected, added with 120 μL of RIPA lysate containing protease inhibitor, Phosphatase Inhibitor Cocktail 2 and Phosphatase Inhibitor Cocktail 3, lysed on wet ice for 30 minutes, and then the cells lysate was centrifuged at a high speed and a low temperature for 5 minutes to collect the supernatant. The protein concentration of the cell sample was determined according to the instructions in the Pierce™ BCA Protein Assay Kit.
The concentration of the sample was adjusted to be consistent using lysis buffer and NuPAGE® LDS sample buffer containing 1M DTT. The samples were heated at 95° C. for 5 minutes and centrifuged at a low temperature and at a high speed. 20 μL of the prepared protein sample and 4 μL of PageRuler Prestained Protein Ladder were added into the gel well for running at 80V voltage for 0.5 hours, then the voltage was adjusted to 120V for further running for 1.5 hours. The gel was removed and the proteins in the gel were transferred to the IBlotTM 2 transfer membrane set at 20V. After successful transfer, bands at 65 kDa-40 kDa and 40 kDa-30 kDa were cut respectively. The membranes were blocked with 5% skim milk for 1 hour at room temperature. The membranes were washed three times with 1× concentration of TBST, then incubated with IRAK4 antibody working solution overnight at 4° C. The IRAK4 antibody working solution was discarded, and the membranes were washed three times with 1×concentration of TBST, and incubated with Goat Anti-Rabbit IgG H&L (HRP) working solution and Goat Anti-Mouse IgG H&L (HRP) working solution at room temperature. After 1 hour of incubation, the antibody working solution was discarded and the membranes were washed three times with 1× concentration of TBST. According to the instructions of the kit SuperSignal™ West Femto Maximum Sensitivity Substrate, the reagents in the kit were mixed in equal volume proportions to prepare a luminescent liquid mixture. The membranes were incubated for 1 minute, then removed for exposure.
The results of Western blotting 24 hours after administration of the compounds with a concentration of 1 μM were shown in Table 3: […]

kinase IRAK4 = kinase IRAK4 (Homo sapiens (Human), UniProt Q9NWZ3); assay: Inhibitory effects of compounds on kinase activity (fluorescence microfluidic mobility detection, competitive with ATP); type: biochemical; conditions: IRAK4 6 nM, ATP 10 μM
Protocol: Based on an experimental method of fluorescence microfluidic mobility detection, an IC50 value of competitive binding of kinase IRAK4 to ATP by the compounds was determined. The initial detection concentration of the compounds was 10 μM, diluted 4-fold gradient down to […], and tested in duplicate. Among them, commercial staurosporine was the standard control substance in this experiment.
1) IRAK4 kinase was dissolved in kinase buffer (50 mM HEPES pH 7.5, 10 mM MgCl2, 2 mM DTT and 0.01% Brij-35) to a final concentration of 6 nM.
2) The substrate peptide FAM-P8 and ATP were dissolved in the above kinase buffer. The final concentrations of the IRAK4 substrate peptide FAM-P8 and ATP were 3 μM and 10 μM respectively.
3) Dilution of the compounds: the compound was first diluted to 50 μM, and then diluted down with a 4-fold gradient of DMSO. The solution without the compound and kinase is used as a blank control, corresponding to the “minimum value” shown below; and the solution without the compound but with kinase, adenosine 5′-triphosphate disodium salt hydrate, DMSO and buffer is used as a positive control, corresponding to the “maximum value” shown below. 4) Kinase reaction and termination: 10 μL of kinase buffer was added to a 384-well plate containing 5 μL of the compound to be tested, and incubated at room temperature for 10 minutes. Another 10 μL of buffer containing the substrate peptide and adenosine 5′-triphosphate disodium salt hydrate was added to the 384-well plate. After incubation at 28° C. for one hour, 25 μL stop solution (100 mM HEPES pH 7.5, 50 mM EDTA, 0.2% Coating Reagent #3 and 0.015% Brij-35) was added to each well to terminate the reaction.
5) Data reading: the CaliperEZ Reader II instrument was used to read the conversion rate data. Conditions: downstream voltage −500V, upstream voltage −2250V, base pressure −0.5 PSI, and screening pressure −1.2 PSI.
6) Data calculation: the conversion rate data was copied from CaliperEZ Reader II and converted into inhibition rate data. The calculation formula is as follows:
[formula] • IC50 values were fitted using XLFit excel add-in version 5.4.0.8,
Y=Bottom+(Top−Bottom)/(1+(IC50/X)^HillSlope) Fitting formula: […]

Chain of IRAK4 protein in THP-1 cells (Q9NWZ3 whole entry): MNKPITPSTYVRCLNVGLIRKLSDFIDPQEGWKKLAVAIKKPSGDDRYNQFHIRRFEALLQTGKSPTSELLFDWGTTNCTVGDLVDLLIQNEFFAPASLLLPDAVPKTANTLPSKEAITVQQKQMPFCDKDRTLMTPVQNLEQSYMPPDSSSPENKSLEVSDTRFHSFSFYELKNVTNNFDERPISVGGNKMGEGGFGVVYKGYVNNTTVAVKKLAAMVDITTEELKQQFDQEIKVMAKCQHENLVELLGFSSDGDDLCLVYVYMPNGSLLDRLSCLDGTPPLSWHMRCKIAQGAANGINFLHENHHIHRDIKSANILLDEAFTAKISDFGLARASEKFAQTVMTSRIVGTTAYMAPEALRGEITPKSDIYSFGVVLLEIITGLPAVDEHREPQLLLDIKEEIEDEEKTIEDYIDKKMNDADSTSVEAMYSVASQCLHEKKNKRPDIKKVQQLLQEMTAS
Chain of kinase IRAK4 (Q9NWZ3 whole entry): as above

Row | SMILES | DC50 [1] [µM] | pIC50 (kinase IRAK4; Table 1, class symbols) | pIC50 (kinase IRAK4; Table 2, substrate FAM-P8 3 μM) | IRAK4 degradation rate 24 hours after administration of the compounds with a concentration of 1 μM [1]
1 | COc1cc2nn(C3CC4(CCN(C(=O)C5CCN(c6cc7c(cc6F)C(=O)N(C6CCC(=O)NC6=O)C7=O)CC5)CC4)C3)cc2cc1NC(=O)c1cccc(C(F)(F)F)n1 (stereo not drawn) [Compound I-8] | 0.0082 | > 7.00 | 7.59 | –
2 | COc1cc2nn(C3CC4(CCN(C(=O)C5CCN(c6ccc7c(c6)C(=O)N(C6CCC(=O)NC6=O)C7=O)CC5)CC4)C3)cc2cc1NC(=O)c1cnn2ccc(N3C[C@H]4C[C@@H]3CO4)nc12 (stereo partly drawn) [Compound I-44] | 0.00116 | – | 7.77 | –
3 | O=C1CCC(N2C(=O)c3ccc(N4CCC(C(=O)N5CCC6(CC5)CC(n5cc7cc(NC(=O)c8cccc(C(F)(F)F)n8)c(N8CC[C@@H](O)C8)cc7n5)C6)CC4)cc3C2=O)C(=O)N1 (stereo partly drawn) [Compound I-10] | 0.00507 | – | 7.62 | –
4 | COc1cc2nn(C3CC4(CCN(c5cnn(C6CCN(c7ccc8c(c7)C(=O)N(C7CCC(=O)NC7=O)C8=O)CC6)c5)CC4)C3)cc2cc1NC(=O)c1cccc(C(F)(F)F)n1 (stereo not drawn) [Compound I-32] | 0.0338 | – | 7.46 | –
5 | COc1cc2nn(C3CC4(CCN(C(=O)C5CCN(c6ccc7c(c6)C(=O)N(C6CCC(=O)NC6=O)C7=O)CC5)CC4)C3)cc2cc1NC(=O)c1coc(N2CCOCC2)n1 (stereo not drawn) [Compound I-54] | 0.0062 | – | 7.94 | –
6 | COc1cc2nn(C3CC4(CCN(C(=O)C5(O)CCN(c6ccc7c(c6)C(=O)N(C6CCC(=O)NC6=O)C7=O)CC5)CC4)C3)cc2cc1NC(=O)c1cccc(C(F)(F)F)n1 (stereo not drawn) [Compound I-33] | 0.00805 | – | 7.58 | –
7 | COc1cc2nn(C3CC4(CCN(C(=O)[C@H]5CC[C@H](C(=O)N[C@H](C(=O)N6C[C@H](O)C[C@H]6C(=O)N[C@@H](C)c6ccc(-c7scnc7C)cc6)C(C)(C)C)CC5)CC4)C3)cc2cc1NC(=O)c1cccc(C(F)(F)F)n1 [Compound I-29] | 0.0163 | – | 7.13 | –
8 | COc1cc2nn(C3CCC4(CC3)CN(C(=O)C3CCN(c5ccc6c(c5)C(=O)N(C5CCC(=O)NC5=O)C6=O)CC3)C4)cc2cc1NC(=O)c1cccc(C(F)(F)F)n1 (stereo not drawn) [Compound I-19] | 0.00178 | – | 8.09 | –
9 | CC(C)(O)c1cc2nn(C3CC4(CCN(C(=O)C5CCN(c6ccc7c(c6)C(=O)N(C6CCC(=O)NC6=O)C7=O)CC5)CC4)C3)cc2cc1NC(=O)c1cccc(C(F)(F)F)n1 (stereo not drawn) [Compound I-5] | 0.0036 | – | 7.95 | –
10 | COc1cc2nn(C3CC4(CCN(C(=O)[C@H]5CC[C@H](CNc6ccc7c(c6)C(=O)N(C6CCC(=O)NC6=O)C7=O)CC5)CC4)C3)cc2cc1NC(=O)c1cccc(C(F)(F)F)n1 (stereo partly drawn) [Compound I-3] | 0.00364 | > 7.00 | 7.80 | 75~100%
11 | COc1cc2nn(C3CC4(CCN(C(=O)C5(F)CCN(c6ccc7c(c6)C(=O)N(C6CCC(=O)NC6=O)C7=O)CC5)CC4)C3)cc2cc1NC(=O)c1cccc(N2CCOCC2)n1 (stereo not drawn) [Compound I-50] | 0.0216 | – | 7.15 | –
12 | COc1cc2nn(C3CC4(CCN(C(=O)C5CCC6(CC5)CN(c5ccc7c(c5)C(=O)N(C5CCC(=O)NC5=O)C7=O)C6)CC4)C3)cc2cc1NC(=O)c1cccc(C(F)(F)F)n1 (stereo not drawn) [Compound I-26] | 0.0446 | – | 7.52 | –
13 | COc1cc2c(cnn2C2CC3(CCC(C(=O)N4CCN(c5ccc6c(c5)C(=O)N(C5CCC(=O)NC5=O)C6=O)CC4)CC3)C2)cc1NC(=O)c1cccc(C(F)(F)F)n1 (stereo not drawn) [Compound I-56] | – | – | 5.71 | –

Continued, values first:

Row | DC50 [1] [µM] | pIC50 (kinase IRAK4; Table 1, class symbols) | pIC50 (kinase IRAK4; Table 2, substrate FAM-P8 3 μM) | IRAK4 degradation rate 24 hours after administration of the compounds with a concentration of 1 μM [1] | SMILES
14 | 0.0329 | > 7.00 | 7.85 | <25% | COc1cc2nn(C3CCN(C(=O)C4CCN(Cc5ccc6c(c5)C(=O)N(C5CCC(=O)NC5=O)C6=O)CC4)CC3)cc2cc1NC(=O)c1cccc(C(F)(F)F)n1 (stereo not drawn) [II-16]
15 | 0.00241 | – | 7.49 | – | CC(C)(O)c1cc2nn(C3CC4(CCN(C(=O)C5CCN(c6ccc7c(c6)C(=O)N([C@H]6CCC(=O)NC6=O)C7=O)CC5)CC4)C3)cc2cc1NC(=O)c1cccc(C(F)(F)F)n1 [Compound I-63]
16 | 0.00615 | > 7.00 | 7.96 | 75~100% | COc1cc2nn(C3CCN(CC(=O)N4CCN(c5cc6c(cc5F)C(=O)N(C5CCC(=O)NC5=O)C6=O)CC4)CC3)cc2cc1NC(=O)c1cccc(C(F)(F)F)n1 (stereo not drawn) [II-5]
17 | > 1 | > 7.00 | 7.96 | <25% | COc1cc2nn(C3CCN(C4CCN(C(=O)c5ccc6c(c5)C(=O)N(C5CCC(=O)NC5=O)C6=O)CC4)CC3)cc2cc1NC(=O)c1cccc(C(F)(F)F)n1 (stereo not drawn) [II-17]
18 | 0.00275 | – | 7.39 | – | COc1cc2nn(C3CC4(CCN(C(=O)[C@H]5CC[C@H](Nc6ccc7c(c6)C(=O)N([C@@H]6CCC(=O)NC6=O)C7=O)CC5)CC4)C3)cc2cc1NC(=O)c1cccc(C(F)(F)F)n1 [Compound I-60]
19 | 0.00326 | – | 7.72 | – | COc1cc2nn(C3CC4(CCN(C(=O)C5CCN(c6cc7c(cc6F)C(=O)N([C@@H]6CCC(=O)NC6=O)C7=O)CC5)CC4)C3)cc2cc1NC(=O)c1cccc(C(F)(F)F)n1 [Compound I-62]
20 | 0.00232 | – | 7.64 | – | Cc1cccc(C(=O)Nc2cc3cn(C4CC5(CCN(C(=O)C6CCN(c7ccc8c(c7)C(=O)N([C@@H]7CCC(=O)NC7=O)C8=O)CC6)CC5)C4)nc3cc2C(C)(C)O)n1 [Compound I-64]
